According to PubChem BioAssay AID1259407 (Chemical Carcinogenesis Research Information System (CCRIS), 2018):
Active and inactive are the calls of the source. No rule for the calls is given here.

System: CCRIS mutagenicity, Ames/micronucleus/aberration tests
Assay: CCRIS mutagenicity studies
[1] = Test System: AMES SALMONELLA TYPHIMURIUM, Strain/Indicator: TA98, Metabolic Activation: RAT, LIVER, S-9, AROCLOR 1254, Method: PREINCUBATION
[2] = Test System: AMES SALMONELLA TYPHIMURIUM, Strain/Indicator: TA100, Metabolic Activation: NONE, Method: STANDARD PLATE
[3] = Test System: AMES SALMONELLA TYPHIMURIUM, Strain/Indicator: TA100, Metabolic Activation: RAT, LIVER, S-9, AROCLOR 1254, Method: STANDARD PLATE
[4] = Test System: AMES SALMONELLA TYPHIMURIUM, Strain/Indicator: TA98, Metabolic Activation: RAT, LIVER, S-9, AROCLOR 1254, Method: STANDARD PLATE
[5] = Test System: AMES SALMONELLA TYPHIMURIUM, Strain/Indicator: TA1537, Metabolic Activation: RAT, LIVER, S-9, AROCLOR 1254, Method: STANDARD PLATE
[6] = Test System: AMES SALMONELLA TYPHIMURIUM, Strain/Indicator: TA1538, Metabolic Activation: RAT, LIVER, S-9, AROCLOR 1254, Method: STANDARD PLATE
[7] = Test System: AMES SALMONELLA TYPHIMURIUM, Strain/Indicator: TA98, Metabolic Activation: NONE, Method: PREINCUBATION
[8] = Test System: AMES SALMONELLA TYPHIMURIUM, Strain/Indicator: TA100, Metabolic Activation: NONE, Method: PREINCUBATION

CN(C)c1ccc(N=Nc2ccc3ncsc3c2)cc1
mutagenic call [1]: active; positive
mutagenic call (Test System: AMES SALMONELLA TYPHIMURIUM, Strain/Indicator: TA98, Metabolic Activation: RAT, LIVER, S-9, AROCLOR, Method: PREINCUBATION): active; positive
mutagenic call (Test System: AMES SALMONELLA TYPHIMURIUM, Strain/Indicator: TA98, Metabolic Activation: RAT, LIVER, S-9, AROCLOR, Method: STANDARD PLATE): active; positive
mutagenic call (Test System: AMES SALMONELLA TYPHIMURIUM, Strain/Indicator: TA98, Metabolic Activation: RAT, LIVER, S-9, Method: PREINCUBATION): active; positive
mutagenic call (Test System: UDS RAT HEPATOCYTES, Strain/Indicator: THY INCORP, Metabolic Activation: NONE, Method: AUTORADIOGRAPHY): active; positive
mutagenic call (Test System: UDS RAT HEPATOCYTES, Strain/Indicator: THY INCORP, Metabolic Activation: NONE, Method: IN VIVO): active; positive
mutagenic call (Test System: UDS RODENT HEPATOCYTES, Strain/Indicator: THY INCORP (NON-S-PHASE), Metabolic Activation: NONE, Method: AUTORADIOGRAPHY): active; positive

O=[N+]([O-])c1ccc2c(c1)CCc1cc3c(cc1-2)CCCC3
mutagenic call (Test System: AMES SALMONELLA TYPHIMURIUM, Strain/Indicator: TA98(1,8-DNP6), Metabolic Activation: NONE): active; positive
mutagenic call (Test System: AMES SALMONELLA TYPHIMURIUM, Strain/Indicator: TA98(1,8-DNP6), Metabolic Activation: RAT, LIVER, S-9, AROCLOR 1254): active; positive
mutagenic call (Test System: AMES SALMONELLA TYPHIMURIUM, Strain/Indicator: TA98(NR), Metabolic Activation: NONE): active; positive
mutagenic call (Test System: AMES SALMONELLA TYPHIMURIUM, Strain/Indicator: TA98(NR), Metabolic Activation: RAT, LIVER, S-9, AROCLOR 1254): active; positive
mutagenic call (Test System: AMES SALMONELLA TYPHIMURIUM, Strain/Indicator: TA98, Metabolic Activation: NONE): active; positive
mutagenic call (Test System: AMES SALMONELLA TYPHIMURIUM, Strain/Indicator: TA98, Metabolic Activation: RAT, LIVER, S-9, AROCLOR 1254): active; positive
mutagenic call (Test System: AMES SALMONELLA TYPHIMURIUM, Strain/Indicator: TA100(NR), Metabolic Activation: NONE): active; positive
mutagenic call (Test System: AMES SALMONELLA TYPHIMURIUM, Strain/Indicator: TA100(NR), Metabolic Activation: RAT, LIVER, S-9, AROCLOR 1254): active; positive
mutagenic call (Test System: AMES SALMONELLA TYPHIMURIUM, Strain/Indicator: TA100, Metabolic Activation: NONE): active; positive
mutagenic call (Test System: AMES SALMONELLA TYPHIMURIUM, Strain/Indicator: TA100, Metabolic Activation: RAT, LIVER, S-9, AROCLOR 1254): active; positive
mutagenic call (Test System: AMES SALMONELLA TYPHIMURIUM, Strain/Indicator: TA104, Metabolic Activation: NONE): active; positive
mutagenic call (Test System: AMES SALMONELLA TYPHIMURIUM, Strain/Indicator: TA104, Metabolic Activation: RAT, LIVER, S-9, AROCLOR 1254): active; positive

CC(C)CCC[C@@H](C)[C@H]1CC[C@H]2[C@@H]3CC=C4CCCC[C@]4(C)[C@H]3CC[C@]12C
mutagenic call (Test System: AMES SALMONELLA TYPHIMURIUM, Strain/Indicator: TA97A, Metabolic Activation: NONE, Method: STANDARD PLATE): inactive; negative
mutagenic call (Test System: AMES SALMONELLA TYPHIMURIUM, Strain/Indicator: TA97A, Metabolic Activation: RAT, LIVER, S-9, AROCLOR 1254, Method: STANDARD PLATE): inactive; negative
mutagenic call [2]: inactive; negative
mutagenic call [3]: inactive; negative
mutagenic call (Test System: AMES SALMONELLA TYPHIMURIUM, Strain/Indicator: TA102, Metabolic Activation: NONE, Method: STANDARD PLATE): inactive; negative
mutagenic call (Test System: AMES SALMONELLA TYPHIMURIUM, Strain/Indicator: TA102, Metabolic Activation: RAT, LIVER, S-9, AROCLOR 1254, Method: STANDARD PLATE): inactive; negative
mutagenic call (Test System: AMES SALMONELLA TYPHIMURIUM, Strain/Indicator: TA104, Metabolic Activation: NONE, Method: STANDARD PLATE): inactive; negative
mutagenic call (Test System: AMES SALMONELLA TYPHIMURIUM, Strain/Indicator: TA104, Metabolic Activation: RAT, LIVER, S-9, AROCLOR 1254, Method: STANDARD PLATE): inactive; negative

C1=Cc2c(cc3ccc4cccc5ccc2c3c45)CC1
mutagenic call [4]: active; positive
mutagenic call [5]: active; positive
mutagenic call [6]: active; positive

CCOP(=O)(OCC)O/C(=C/Br)c1ccc(Cl)cc1Cl
mutagenic call (Test System: AMES SALMONELLA TYPHIMURIUM, Strain/Indicator: TA98, Metabolic Activation: NONE, Method: STANDARD PLATE): inactive; negative
mutagenic call [4]: inactive; negative
mutagenic call [2]: inactive; negative
mutagenic call [3]: inactive; negative
mutagenic call (Test System: AMES SALMONELLA TYPHIMURIUM, Strain/Indicator: TA1535, Metabolic Activation: NONE, Method: STANDARD PLATE): inactive; negative
mutagenic call (Test System: AMES SALMONELLA TYPHIMURIUM, Strain/Indicator: TA1535, Metabolic Activation: RAT, LIVER, S-9, AROCLOR 1254, Method: STANDARD PLATE): inactive; negative
mutagenic call (Test System: AMES SALMONELLA TYPHIMURIUM, Strain/Indicator: TA1537, Metabolic Activation: NONE, Method: STANDARD PLATE): inactive; negative
mutagenic call [5]: inactive; negative
mutagenic call (Test System: AMES SALMONELLA TYPHIMURIUM, Strain/Indicator: TA1538, Metabolic Activation: NONE, Method: STANDARD PLATE): inactive; negative
mutagenic call [6]: inactive; negative

O[C@H]1c2cccc3ccc4cccc(c4c23)[C@@H]1O
mutagenic call [7]: inactive; negative
mutagenic call [1]: inactive; negative
mutagenic call [8]: inactive; negative
mutagenic call (Test System: AMES SALMONELLA TYPHIMURIUM, Strain/Indicator: TA100, Metabolic Activation: RAT, LIVER, S-9, AROCLOR 1254, Method: PREINCUBATION): inactive; negative

Fc1cc(F)c2ncccc2c1
mutagenic call (Test System: AMES SALMONELLA TYPHIMURIUM, Strain/Indicator: TA100, Metabolic Activation: RAT LIVER S-9, PHENOBARBITAL AND 5,6-BENZOFLAVONE, Method: PREINCUBATION): active; positive

O=C(O)CO.[NH2-].[NH2-].[Pt+2]
mutagenic call [7]: active; positive
mutagenic call (Test System: AMES SALMONELLA TYPHIMURIUM, Strain/Indicator: TA98, Metabolic Activation: RAT, LIVER, S-9, PHENOBARBITAL AND 5,6-BENZOFLAVONE, Method: PREINCUBATION): active; positive
mutagenic call [8]: active; positive
mutagenic call (Test System: AMES SALMONELLA TYPHIMURIUM, Strain/Indicator: TA100, Metabolic Activation: RAT, LIVER, S-9, PHENOBARBITAL AND 5,6-BENZOFLAVONE, Method: PREINCUBATION): active; positive
mutagenic call (Test System: AMES SALMONELLA TYPHIMURIUM, Strain/Indicator: TA1535, Metabolic Activation: NONE, Method: PREINCUBATION): inactive; negative
mutagenic call (Test System: AMES SALMONELLA TYPHIMURIUM, Strain/Indicator: TA1535, Metabolic Activation: RAT, LIVER, S-9, PHENOBARBITAL AND 5,6-BENZOFLAVONE, Method: PREINCUBATION): inactive; negative
mutagenic call (Test System: AMES SALMONELLA TYPHIMURIUM, Strain/Indicator: TA1537, Metabolic Activation: NONE, Method: PREINCUBATION): inactive; negative
mutagenic call (Test System: AMES SALMONELLA TYPHIMURIUM, Strain/Indicator: TA1537, Metabolic Activation: RAT, LIVER, S-9, PHENOBARBITAL AND 5,6-BENZOFLAVONE, Method: PREINCUBATION): inactive; negative
mutagenic call (Test System: E.COLI, Strain/Indicator: WP2 UVRA, Metabolic Activation: NONE, Method: PREINCUBATION): inactive; negative
mutagenic call (Test System: E.COLI, Strain/Indicator: WP2 UVRA, Metabolic Activation: RAT, LIVER, S-9 PHENOBARBITAL AND 5,6-BENZOFLAVONE, Method: PREINCUBATION): inactive; negative

CCC[C@H]1O[C@H]1c1ccccc1
mutagenic call (Test System: AMES SALMONELLA TYPHIMURIUM, Strain/Indicator: TA98, Metabolic Activation: NONE, Method: PREINCUBATION (PHOSPHATE-BUFFERED KCL OR SOLUTE-FREE WATER MEDIA)): inactive; negative
mutagenic call (Test System: AMES SALMONELLA TYPHIMURIUM, Strain/Indicator: TA100, Metabolic Activation: NONE, Method: PREINCUBATION (PHOSPHATE-BUFFERED KCL OR SOLUTE-FREE WATER MEDIA)): inactive; negative
mutagenic call (Test System: AMES SALMONELLA TYPHIMURIUM, Strain/Indicator: TA104, Metabolic Activation: NONE, Method: PREINCUBATION (PHOSPHATE-BUFFERED KCL OR SOLUTE-FREE WATER MEDIA)): inactive; negative
